Measured values published in US20120295920A1, “5-AMINO-4-HYDROXYPENTOYL AMIDES” (priority 2009, published 2012).
Like-named read-outs stand apart in the source and are kept apart here.

Key:
[1] = test system: HIV-1 wild-type strain; test: General antiviral assay, cell-based virus replication in MT4-LTR-EGFP cells, wild-type strain
Description: (§1) MT4-LTR-EGFP cells were obtained by transfecting MT4 cells with a selectable construct encompassing the sequences coding for the HIV long terminal repeat (LTR) as a promoter for the expression of enhanced green fluorescent protein (EGFP) and subsequent selection of permanently transfected cells.
(§2) The antiviral activity on different HIV-1 strains, was determined in a cell-based virus replication assay. Here MT4-LTR-EGFP cells (150,000 cells/ml) are infected (multiplicity of infection [MOI] of 0.0025) in the presence or absence of different inhibitor concentrations. Two methodologies for read-out were used, either quantification of GFP-fluoresence on day 3 post-infection, or quantification of cell-viability using rezazurin (as described by Fields, R. D., and M. V. Lancaster (1993) Am. Biotechnol. Lab. 11:48-50) on day 4 post infection.

[2] = test system: HIV-1 Strain A (M046I, I084V); test: microbe, parasite or virus in culture; format: cell-based; conditions: clinical isolate Strain A; read-out: A EC50
Description: as §1, §2
(§3) In the following Table, Strains A, B, and C are clinical isolates that include the following protease inhibitor resistance mutations in the protease domain (background mutations are not mentioned).

[3] = test system: HIV-1 Strain B (M046I, I050V); test: microbe, parasite or virus in culture; format: cell-based; conditions: clinical isolate Strain B; read-out: B EC50
Description: as §1, §2, §3

[4] = test system: HIV-1 Strain C (G048G/V, V082A); test: microbe, parasite or virus in culture; format: cell-based; conditions: clinical isolate Strain C; read-out: C EC50
Description: as §1, §2, §3

[5] = test system: HIV-1 IIIB; test: 50% HS-Rezazurin: antiviral assay in the presence of 50% human serum, MT-4 cells, resazurin cell viability; format: cell-based
Description: For the Antiviral assay in the presence of 50% human serum MT-4 cells were infected with HIV-1 IIIB at a MOI of 0.001 to 0.01 CCID50/cell in RPMI1640 medium. Following 1 h of incubation, cells were washed and plated into a 96-well plate containing serial dilutions of compound in the presence of 10% fetal calf serum (FCS), or 50% human serum. After 4 days incubation, the EC50 in the presence of 50% human serum was determined by a cell viability assay using resazurin.
The last column lists the results for the wild-type strain IIB in the presence of 50% human serum MT-4 cells.

[6] = test system: mock-infected MT4 cells; test: General toxicity assay on mock-infected MT4 cells with CMV-EGFP reporter (CC50); format: cell-based
[7] = wild-type strain IIIB, MT4-LTR-EGFP cells
[8] = mock-infected MT4 cells with CMV-EGFP reporter, read-out: TOX-MT4CMV (CC50)
[9] = MT4LTR cells, read-out: TOX-MT4LTR (CC50)

Row | Structure (SMILES) | EC50 [1, 7] [nM] | EC50 [2] [nM] | EC50 [3] [nM] | EC50 [4] [nM] | EC50 [5] [nM] | CC50 [6, 8] [nM] | CC50 [6, 9] [nM] | EC50 ([1]; read-out: HIV-IIIB EC50) [nM]
1 | COC(=O)N[C@H](C(=O)N[C@@H](Cc1ccc(-c2ccnc(C(F)(F)F)c2)cc1)[C@@H](O)C[C@@H](Cc1ccccc1F)C(=O)N[C@H]1c2cc(Cl)ccc2OC[C@H]1O)C(C)(C)C [Compound 31] | 7 | 5 | 3.2 | 3.4 | 26.4 | > 32000 |  | 
2 | COC(=O)N[C@H](C(=O)N[C@@H](Cc1ccc(-c2ccc(OC)nc2)cc1)[C@@H](O)C[C@@H](Cc1ccccc1Cl)C(=O)N[C@H]1c2ccccc2OC[C@H]1O)C(C)(C)C [Compound 37] | 1.7 | 2.5 | 0.9 | 0.8 | 4.6 | > 32000 | > 32000 | 
3 | COC(=O)N[C@H](C(=O)N[C@@H](Cc1ccc(-c2ccc(OC)nc2)cc1)[C@@H](O)C[C@@H](Cc1ccccc1F)C(=O)N[C@H]1c2cc(Cl)cc(F)c2OC[C@H]1O)C(C)(C)C [Compound 61] | 4.1 | 3 | 2.1 | 1.6 | 16.1 |  | > 32000 | 
4 | COC(=O)N[C@H](C(=O)N[C@@H](Cc1ccc(-c2ccc(N(C)C)nc2)cc1)[C@@H](O)C[C@@H](Cc1ccccc1F)C(=O)N[C@H]1c2cc(F)ccc2OC[C@H]1O)C(C)(C)C [Compound 33] | 2.5 | 1.5 | 1 | 0.9 | 9.8 | > 32000 |  | 
5 | COC(=O)N[C@H](C(=O)N[C@@H](Cc1ccc(-c2cnc(OC)nc2)cc1)[C@@H](O)C[C@@H](Cc1cccc(F)c1)C(=O)N[C@H]1c2cc(F)ccc2OC[C@H]1O)C(C)(C)C [Compound 65] | 9.1 | 4.5 | 3.6 | 2.3 | 24.7 |  | > 32000 | 
6 | COC(=O)N[C@H](C(=O)N[C@@H](Cc1ccc(-c2ccc(OC)nc2)cc1)[C@@H](O)C[C@@H](Cc1cccc(F)c1)C(=O)N[C@H]1c2cccc(F)c2OC[C@H]1O)C(C)(C)C [Compound 40] | 2.4 | 1.6 | 1 | 0.8 | 11.2 | > 32000 | > 32000 | 
7 | COC(=O)N[C@H](C(=O)N[C@@H](Cc1ccc(-c2ccc(N(C)C)nc2)cc1)[C@@H](O)C[C@@H](Cc1cccc(OC)c1)C(=O)N[C@H]1c2cc(F)ccc2OC[C@H]1O)C(C)(C)C [Compound 26] | 5 | 4.2 | 3.4 | 3.2 | 15.4 | > 32000 |  | 
8 | COC(=O)N[C@H](C(=O)N[C@@H](Cc1ccc(-c2cnc(C)s2)cc1)[C@@H](O)C[C@@H](Cc1ccccc1F)C(=O)N[C@H]1[C@H](C)CC[C@H]1O)C(C)(C)C [Compound 83] | 4 | 8.3 | 2.5 | 2.7 | 14.3 | > 32000 |  | 
9 | COC(=O)N[C@H](C(=O)N[C@@H](Cc1ccc(-c2ccc(OC)nc2)cc1)[C@@H](O)C[C@@H](Cc1cccc(OC)c1)C(=O)N[C@H]1c2cc(Cl)ccc2OC[C@H]1O)C(C)(C)C [Compound 27] | 3.1 | 2.8 | 2.2 | 1.6 | 10.7 | > 32000 | > 32000 | 
10 | COc1ccc(-c2ccc(C[C@H](NC(=O)O[C@H]3CO[C@H]4OCC[C@H]43)[C@@H](O)C[C@@H](Cc3ccccc3F)C(=O)N[C@H]3c4cc(Cl)ccc4OC[C@H]3O)cc2)cn1 [Compound 72] | 1.5 | 0.8 | 0.8 | 0.5 | 5.8 |  | > 32000 | 
11 | COC(=O)NC(C(=O)NC(Cc1ccc(-c2ccc(N(C)C)nc2)cc1)C(O)CC(Cc1cccc(Cl)c1)C(=O)NC1c2cc(Cl)ccc2OCC1O)C(C)(C)C (stereo not shown) [Compound 5] | 4.7 | 5.4 | 4.4 | 5.1 | 28.6 | > 32000 |  | 
12 | COC(=O)NC(C(=O)NC(Cc1ccc(-c2ccc(N(C)C)nc2)cc1)C(O)CC(Cc1ccccc1F)C(=O)NC1c2cc(F)cc(F)c2OCC1O)C(C)(C)C (stereo not shown) [Compound 10] | 3.2 | 4 | 2.5 | 1.7 | 20.1 | > 32000 |  | 
13 | COC(=O)NC(C(=O)NC(Cc1ccc(-c2ccnc(C)c2)cc1)C(O)CC(Cc1cccc(Cl)c1)C(=O)NC1c2ccccc2OCC1O)C(C)(C)C (stereo not shown) [Compound 1] |  | 5.7 | 4.8 | 3.7 | 39.3 | > 32000 |  | 7.7
14 | COC(=O)N[C@H](C(=O)N[C@@H](Cc1ccc(-c2ccc(OC)nc2)cc1)[C@@H](O)C[C@@H](Cc1cccc(OC(F)(F)F)c1)C(=O)N[C@H]1[C@H](C)CCC[C@H]1O)C(C)(C)C [Compound 94] | 0.9 | 1.9 | 0.8 | 1.4 | 7.1 |  | > 32000 | 
15 | COC(=O)N[C@H](C(=O)N[C@@H](Cc1ccc(-c2ccc(N(C)C)nc2)cc1)[C@@H](O)C[C@@H](Cc1ccccc1F)C(=O)N[C@H]1[C@H](C)CCC[C@H]1O)C(C)(C)C [Compound 89] | 1.1 |  |  | 0.8 | 4.9 | > 32000 | > 32000 | 
16 | COC(=O)N[C@H](C(=O)N[C@@H](Cc1ccc(-c2ccc(N(C)C)nc2)cc1)[C@@H](O)C[C@@H](Cc1ccccc1F)C(=O)N[C@H]1c2cc(Cl)cc(F)c2OC[C@H]1O)C(C)(C)C [Compound 60] | 4.1 | 2.6 | 1.9 | 1.2 | 25.2 |  | 10000 | 
17 | COc1ccc(-c2ccc(C[C@H](NC(=O)[C@@H](NC(=O)C3(C#N)CC3)C(C)(C)C)[C@@H](O)C[C@@H](Cc3ccccc3F)C(=O)N[C@H]3c4cc(Cl)ccc4OC[C@H]3O)cc2)cn1 [Compound 47] | 3.2 | 11.1 | 6.8 | 5.5 | 10.4 |  | > 32000 | 
18 | CCOc1ccc(-c2ccc(C[C@H](NC(=O)[C@@H](NC(=O)OC)C(C)(C)C)[C@@H](O)C[C@@H](Cc3ccccc3F)C(=O)N[C@H]3c4cc(Cl)ccc4OC[C@H]3O)cc2)cn1 [Compound 44] | 3.2 |  | 2.2 | 2 | 13.7 |  | > 32000 | 
19 | COC(=O)N[C@H](C(=O)N[C@@H](Cc1ccc(-c2ccc(N(C)C)nc2)cc1)[C@@H](O)C[C@@H](Cc1ccccc1F)C(=O)N[C@H]1c2cccc(F)c2OC[C@H]1O)C(C)(C)C [Compound 51] | 3 | 2.3 | 1.5 | 1.3 | 7 |  | > 32000 | 
20 | COC(=O)N[C@H](C(=O)N[C@@H](Cc1ccc(-c2ccc(OC)nc2)cc1)[C@@H](O)C[C@@H](Cc1ccccc1F)C(=O)N[C@H]1c2cc(F)ccc2OC[C@H]1O)C(C)(C)C [Compound 59] | 1.2 | 0.9 | 0.6 |  | 5.8 |  | > 32000 | 
21 | COC(=O)NC(C(=O)NC(Cc1ccc(-c2csc(N(C)C)n2)cc1)C(O)CC(Cc1ccccc1F)C(=O)NC1c2cc(Cl)ccc2OCC1O)C(C)(C)C (stereo not shown) [Compound 20] | 3.1 | 7.4 |  | 2.7 | 11.2 | 6000 |  | 
22 | CN(C)c1ccc(-c2ccc(CC(NC(=O)C(NC(=O)CN3CCCC3)C(C)(C)C)C(O)CC(Cc3cccc(Cl)c3)C(=O)NC3c4cc(F)ccc4OCC3O)cc2)cn1 (stereo not shown) [Compound 9] | 8.8 |  | 6.6 | 3.7 | 31.7 | > 27000 |  | 
23 | COCCOC(=O)N[C@H](C(=O)N[C@@H](Cc1ccc(-c2ccc(OC)nc2)cc1)[C@@H](O)C[C@@H](Cc1ccccc1Cl)C(=O)N[C@H]1c2cc(F)ccc2OC[C@H]1O)C(C)(C)C [Compound 57] | 1.9 |  | 0.9 | 0.8 | 8.7 |  | > 32000 | 
24 | COC(=O)N[C@H](C(=O)N[C@@H](Cc1ccc(-c2cncc(OC)n2)cc1)[C@@H](O)C[C@@H](Cc1ccccc1F)C(=O)N[C@H]1c2cc(Cl)ccc2OC[C@H]1O)C(C)(C)C [Compound 24] | 3.3 |  | 1.9 | 1.7 | 16.1 | > 32000 |  | 
25 | CNC(=O)[C@@H](NC(=O)[C@H](Cc1ccccc1F)C[C@H](O)[C@H](Cc1ccc(-c2ccc(N(C)C)nc2)cc1)NC(=O)O[C@H]1CO[C@H]2OCC[C@H]21)C(C)(C)C [Compound 69] |  |  | 7 | 5.7 | 26.6 | > 32000 |  | 11.6
